{"source": "paper PMC9863691", "about": "“A Novel Ferroptosis Inhibitor UAMC-3203, a Potential Treatment for Corneal Epithelial Wound” (Pharmaceutics, 2022)", "key": {"[1]": {"assay": "drug distribution in porcine cornea ex vivo", "format": "in vitro ADME", "procedure": "Fresh porcine (a crossbreed between Matias and Yorkside) eyes were collected in the laboratory animal center at the University of Eastern Finland. The eyes were stored overnight in a keratinocyte serum-free medium (Gibco, Life Technologies Corporation, Grand Island, NY, USA) at +4 °C. The cornea was excised using an incision along the limbus, as described earlier.\nThe isolated corneas were rinsed with PBS and mounted in vertical Franz diffusion cells (PermeGear, Inc., Hellertown, PA, USA). Small magnetic stir bars were added to each receiver chamber, and 5 mL of 35 °C BSS Plus supplemented with 10 mM of 4-(2-hydroxyethyl)-1-piperazineethanesulfonic acid (HEPES; Lonza Bioscience, Walkersville, MD, USA) was added to the receiver compartment of each Frantz cell. The experiment was initiated by adding 50 µM UAMC-3203 in 10 mM HEPES-BSS Plus solution to the donor compartment. Samples of 500 µL from donor compartments and corneas were collected at the end of the experiments (at 5, 30, 60, and 120 min). The cornea samples were rinsed with PBS, the epithelial layer was scraped off from the corneas, and the remaining stroma–endothelium samples were cut to pieces. The experiments were carried out in triplicates. The samples were stored at −80 °C until liquid chromatography–tandem mass spectrometry (LC-MS/MS) analyses were performed.\nThe values of apparent partition coefficients (Kp) were calculated using drug concentrations on the tissue samples (at 120 min) and in the donor compartment buffer at time zero (ng/mL).\nQuantitative analysis of UAMC-3203 was performed with the LC-MS/MS system that consisted of an Agilent 1290 series liquid chromatograph connected to an Agilent 6495 triple-quadruple mass spectrometer (Agilent Technologies, Inc., USA). The mobile phase consisted of 0.1% formic acid (Fisher chemical, Geel, Belgium), 1 mM ammonium formate (Honeywell, Fluka, Seelze, Germany) in Milli-Q-H2O (eluent A), and acetonitrile (LC-MS Chromasolv, Honeywell, Riedel-de Haen, Seelze, Germany) (eluent B). Gradient elution was used: 0.0 to 3.0 min: 25%→95% B, 3.0 to 3.5 min: 95% B, 3.5 to 3.6 min: 95%→25% B, 3.6 to 5.0 min 25% B. Solvent flow was 0.3 mL/min, and Poroshell 120 SB-C18 column (2.1 mm × 50 mm, 2.7 µm, Agilent Technologies, Inc., USA) was maintained at 60 °C. The injection volume was 2 µL. Nitrogen was used as a drying, nebulizer, and collision gas. The following conditions were used in the electrospray ion source: positive ion mode, sheath gas flow rate 11 L/min at 350 °C, drying gas flow rate 16 L/min at 200 °C, nebulizer gas pressure adjusted to 25 psi, capillary voltage 3500 V (ESI+), fragmentor voltage 380 V, dwell time 150 ms and cell accelerator voltage 5 V. The data were analyzed with Agilent Mass Hunter Quantitative Analyzed software (vB.09.00, build 9.0.647.0, Agilent Technologies, CA, USA). The precursor and fragment ions are presented in Supplementary Table S1."}, "[2]": {"conditions": "human microsome; cited from earlier work"}, "[3]": {"tested_on": "mouse model of (multi)organ dysfunction and death", "set-up": "method as in PMID 35210435", "conditions": "cited from earlier work"}, "[4]": {"tested_on": "human corneal epithelial (HCE) cells", "assay": "in vitro scratch assay", "format": "cell-based", "conditions": "for HCE cell migration (%): 72 h, negative control 55.6 ± 17.6%", "procedure": "In vitro scratch assay was performed in confluent HCE monolayer as previously reported. HCE cells were seeded on 24-well plates at 1 × 10^5 cells/well incubated for 24 h. The monolayer was scratched with sterile 10 µL pipette tips perpendicular to the lines to create a consistent cell-free area. The cells were washed three times with pre-warmed PBS to remove detached cells. The cells were then exposed to UAMC-3203 at different concentrations (10 nM, 1 µM, 10 µM, 50 µM) in serum-free DMEM (Dulbecco’s Modified Eagle Medium): F12 media that was supplemented with 1% penicillin-streptomycin solution […] penicillin, 0.1 mg/mL streptomycin (Corning, Ref 30-002-CI, Mediatech Inc., Discovery Boulevard, Manassas, VA, USA). Serum-free medium was used as a negative control, and 1.5% fetal bovine serum (FBS 10270, Gibco by Life Technologies, Carlsbad, CA, USA) supplemented medium was used as a positive control. The well plates were then transferred to Cell-IQ (CM Technologies Limited, Tampere, Finland) and maintained in standard tissue culture conditions (37 °C, 5% CO2-atmosphere).\nImages were taken immediately after scratch (less than 1 h) and at 6, 12, 24, 30, 42, 48, and 72 h and analyzed by Cell-IQ analyzer. Three independent experiments were performed, using two to three wells for each stimulating condition. Cell migration (A%) was calculated as follows:(1) A%=A0−At/A0×100 where A0 and At represent the wound areas at 0 h and each timepoint, respectively."}}}
{"smiles": "O=S(=O)(NCCN1CCNCC1)c1ccc(NC2CCCCC2)c(NCc2ccccc2)c1", "note": "[UAMC-3203]", "values": [{"measurement": "Kp epithelium/donor relative to Kp stroma/epithelium", "setting": "[1]", "result": "≈ 52 times"}, {"measurement": "levels in epithelium higher than in stroma–endothelium", "setting": "[1]; 50 µM donor", "result": "1–2 orders of magnitude"}, {"measurement": "level in the cornea at 5 min", "setting": "[1]; 50 µM donor, 5 min", "result": "≈ 20 µM"}, {"measurement": "Kp epithelium/donor", "setting": "[1]; 50 µM donor, 120 min", "result": "1.95 ± 0.45"}, {"measurement": "Kp stroma/epithelium", "setting": "[1]; 50 µM donor, 120 min", "result": "0.04 ± 0.02"}, {"measurement": "epithelium concentration relative to stroma at 120 min", "setting": "[1]; 120 min", "result": "≈ 28 times"}, {"measurement": "concentration in corneal epithelium relative to corneal stroma", "setting": "[1]; over the time points", "result": "12–38 fold"}, {"measurement": "t1/2 in human microsome", "setting": "[2]", "result": 20, "unit": "h"}, {"measurement": "efficacy compared to Fer-1", "setting": "[3]", "result": "more effective"}, {"measurement": "HCE cell migration (%)", "setting": "[4]; 10 nM", "result": "84.9 ± 12.5", "unit": "%"}, {"measurement": "HCE cell migration (%)", "setting": "[4]; 1 µM", "result": "76.6 ± 15.2", "unit": "%"}, {"measurement": "cell migration compared to negative control", "setting": "[4]; 10 µM", "result": "no notable difference at any time point"}, {"measurement": "change of scratch area", "setting": "[4]; 50 µM", "result": "did not cause any changes in the scratch area"}, {"measurement": "optimal concentration for corneal epithelial wound healing effect in vitro", "setting": "[4]; in vitro", "result": 10, "unit": "nM"}]}
